{"source": "patent US20230159899A1", "about": "“DEVICES AND METHODS FOR SIMULATING A FUNCTION OF LIVER TISSUE” (EMULATE, INC., priority 2015, published 2023)", "key": {"[1]": {"test_system": "Human Liver-on-Chip", "format": "in vitro ADME", "description": "FIG. 83 provides a graph measuring a low clearance compound Antipyrine in a Clearance assay in microfluidic “Human Liver-on-Chip” under continuous flow.\nFIG. 84 provides a graph measuring low clearance compound Antipyrine in a Clearance assay in microfluidic “Human Liver-on-Chip” under non-dynamic conditions.\nEach drug molecule has a limited time to interact with hepatocytes, i.e. an interaction time. Under conditions of flow, the interaction time is reduced. However the interaction time can be increased by either using non-dynamic conditions (absence of flow) or by reticulating the media containing the drug. The present invention contemplates both embodiments for increasing interaction time, and in particular for low clearance compounds. […] See, FIGS. 83-84.\nUnder dynamic conditions: Antipyrine medium removed from the Liver-on-Chip at 5 sample points over 10 hours of incubation, then again after 25 hours of incubation, was tested for an amount (%) of remaining compound. After 25 hours, around 90% of the compound remained in the media. See, FIG. 83.\nUnder non-dynamic conditions: 50 μl (total) of Antipyrine medium in the Liver-on-Chip was tested for an amount (%) of remaining compound, after incubation for 24 hours and 48 hours. At 48 hours, around 100% of the compound appeared to be present in the media. […]"}, "[2]": {"test_system": "DOG Liver-on-Chip", "format": "cell-based", "conditions": "7 days", "method": "(§1) FIGS. 75A-75C provides graphs measuring Bosentan Toxicity as a percentage of LDH Leakage in three different species of microfluidic chips: FIG. 75A “RAT Liver-on-Chip” (7 days of treatment); FIG. 75B microfluidic “DOG Liver-on-Chip” (7 days of treatment); and FIG. 75C microfluidic “Human Liver-on-Chip” (3 days of treatment) increasing concentrations from 1.2 (1.3 for human)-100 μM. Samples were removed from the hepatocyte channel and the LSEC channel of the microfluidic chip with a sample from a plate sandwich culture shown for comparison.\n(§2) An exemplary tool compound was chosen for a pilot study, as an exemplary step 1: Bosentan (Tracleer), see, FIG. 74 for an exemplary chemical structure. […] Step 2: RAT and DOG “Liver-on-Chip” models were chosen for comparison to a HUMAN “Liver-on-Chip”. Step 3: A concentration range of 1.2 to 100 μM Bosentan was selected. Step 4, a first type of mechanism, e.g. exemplary LDH leakage was chosen for analysis of toxicity. FIG. 75 provides graphs measuring Bosentan Toxicity as a percentage of LDH Leakage in three different species of microfluidic chips: A) “RAT Liver-on-Chip” (7 days of treatment); B) microfluidic “DOG Liver-on-Chip” (7 days of treatment); and C) microfluidic “Human Liver-on-Chip” (3 days of treatment) increasing concentrations from 1.2 (1.3 for human)-100 μM. […]"}, "[3]": {"test_system": "RAT Liver-on-Chip", "assay": "Bosentan toxicity as LDH leakage, RAT Liver-on-Chip", "format": "cell-based", "conditions": "1.2-100 μM", "method": "as §1, §2"}, "[4]": {"test_system": "Na(+)-dependent taurocholate uptake", "conditions": "rat suspended hepatocytes; read-out: IC(50), inhibition of Na(+)-dependent taurocholate uptake; cited from earlier work"}, "[5]": {"conditions": "reported in literature; cited from earlier work"}, "[6]": {"test_system": "Human Liver-on-Chip", "format": "cell-based", "conditions": "3 days", "method": "as §1, §2"}, "[7]": {"target": "T1, human NTCP (SLC10A1) (Homo sapiens, UniProt Q14973)", "T1 sequence (Q14973 1-349)": "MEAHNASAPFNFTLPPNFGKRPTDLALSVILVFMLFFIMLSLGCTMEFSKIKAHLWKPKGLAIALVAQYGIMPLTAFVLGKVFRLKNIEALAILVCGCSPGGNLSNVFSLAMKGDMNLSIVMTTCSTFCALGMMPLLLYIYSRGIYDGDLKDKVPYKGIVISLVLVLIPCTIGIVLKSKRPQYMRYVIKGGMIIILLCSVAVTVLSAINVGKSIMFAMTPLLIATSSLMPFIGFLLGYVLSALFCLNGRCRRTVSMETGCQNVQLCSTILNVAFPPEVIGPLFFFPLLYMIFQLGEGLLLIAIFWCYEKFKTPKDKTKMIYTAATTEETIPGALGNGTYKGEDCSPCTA", "conditions": "human NTCP (SLC10A1) expressed in HEK293 cells; read-out: IC(50), inhibition of taurocholate uptake; cited from earlier work"}, "[8]": {"test_system": "DOG Liver-on-Chip", "assay": "Bosentan toxicity as albumin secretion, DOG Liver-on-Chip", "format": "cell-based", "method": "(§3) FIGS. 76A-76C provides graphs measuring Bosentan Toxicity as Albumin Secretion in three different species of microfluidic chips: FIG. 76A “RAT Liver-on-Chip”; FIG. 76B “DOG Liver-on-Chip”; increasing concentrations from 1.2-100 μM and FIG. 76C “Human Liver-on-Chip” increasing concentrations from 0.4-100 μM. Samples were removed from the microfluidic chip with a sample from a plate sandwich culture shown for comparison.\n(§4) Thus, for step 4, one exemplary toxicity mechanism is a loss of albumin secretion."}, "[9]": {"test_system": "Human Liver-on-Chip", "format": "cell-based", "method": "as §3, §4\n(§5) One contemplated difference between unsuccessful modeling experiments i.e. measuring cell death by LDH release, as in FIG. 75 vs. successful modeling measuring reduced cell function by a reduction in albumin secretion, as in FIG. 76, was potential cross-talk (e.g. exchange of secretions or physical cell-cell interactions) between Hepatocyte and liver sinusoidal endothelial cells (LSEC) after treatment with Bosentan. Therefore, a Human Liver-on-Chip was designed and seeded with areas of LSEC only and hepatocytes only, allowing a co-culture area in between, see, micrograph in FIG. 77. […] Therefore, co-culturing with LSEC increases hepatocytes sensitivity to Bosentan in these microfluidic HUMAN Liver-on-Chips."}, "[10]": {"test_system": "hepatocytes with liver sinusoidal endothelial cells (LSEC)", "assay": "Modified Human Liver-on-Chip with LSEC only, hepatocytes only and co-culture areas, visual observation", "format": "cell-based", "conditions": "Bosentan at 11 μM, 3 days of treatment", "description": "as §5"}, "[11]": {"target": "T2, rat Na(+)-dependent taurocholate co-transporting polypeptide (Ntcp/Slc10a1) (Rattus norvegicus, UniProt P26435)", "T2 sequence (P26435 1-362)": "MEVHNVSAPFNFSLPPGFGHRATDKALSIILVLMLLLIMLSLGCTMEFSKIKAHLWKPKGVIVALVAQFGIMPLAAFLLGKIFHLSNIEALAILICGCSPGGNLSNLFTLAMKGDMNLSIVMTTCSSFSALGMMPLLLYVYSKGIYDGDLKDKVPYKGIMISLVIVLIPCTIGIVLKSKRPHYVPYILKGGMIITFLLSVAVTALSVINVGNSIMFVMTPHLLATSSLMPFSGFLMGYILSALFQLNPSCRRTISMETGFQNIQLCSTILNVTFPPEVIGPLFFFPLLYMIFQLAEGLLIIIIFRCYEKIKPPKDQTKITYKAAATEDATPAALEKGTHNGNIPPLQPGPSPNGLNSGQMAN", "conditions": "rat Ntcp/Slc10a1 expressed in HEK293 cells; read-out: IC(50), inhibition of taurocholate uptake; cited from earlier work"}, "[12]": {"conditions": "clinical trials, cited from earlier work"}, "[13]": {"test_system": "Na(+)-dependent taurocholate uptake", "conditions": "human suspended hepatocytes; read-out: IC(50), inhibition of Na(+)-dependent taurocholate uptake; cited from earlier work"}, "[14]": {"test_system": "Rat Stellate Cells", "assay": "Stellate cell activation in quadruple-culture Rat Liver-on-Chip (α-SMA staining)", "format": "cell-based", "conditions": "1 ng/ml for 48 hours, from Day 7", "method": "FIGS. 82A-82B provides a micrograph of isolated Rat Stellate Cells that were seeded within a microfluidic Quadruple-culture “Rat Liver-on-Chip”. […] DAPI (blue) stained nuclei.\nA quadruple-culture microfluidic Rat Liver-on-Chip at Day 7 has viable Stellate cells."}}, "note": "Like-named read-outs stand apart in the source and are kept apart here.", "data": [{"molecule": "Cc1cc(=O)n(-c2ccccc2)n1C", "note": "[Antipyrine]", "values": [{"measurement": "amount of remaining compound in the media", "setting": "[1]; dynamic conditions (continuous flow), after 25 hours", "value": "around 90%"}, {"measurement": "amount of remaining compound in the media", "setting": "[1]; non-dynamic conditions, 50 μl medium, at 48 hours", "value": "around 100%"}]}, {"molecule": "COc1ccccc1Oc1c(NS(=O)(=O)c2ccc(C(C)(C)C)cc2)nc(-c2ncccn2)nc1OCCO", "note": "[Bosentan]", "values": [{"measurement": "LDH leakage: dose up to which there was a lack of effects", "setting": "[2]", "value": 100, "unit": "µM"}, {"measurement": "LDH leakage, hepatocytes and LSEC channel of chip", "setting": "[3]; 7 days of treatment", "value": "no toxicity effects"}, {"measurement": "LDH toxicity, rat hepatocytes on conventional plates", "setting": "[3]; plate sandwich culture", "value": "does not show LDH toxicity"}, {"measurement": "IC50", "setting": "[4]", "value": 5.4, "unit": "µM"}, {"measurement": "hepatotoxicity in treated rats", "setting": "[5]", "value": "do not develop hepatotoxicity"}, {"measurement": "LDH leakage: concentration at which hepatocytes on plates showed an effect", "setting": "[6]", "value": 100, "unit": "µM"}, {"measurement": "concentration at which LDH effect was observed (the same as for loss of albumin secretion)", "setting": "[6]", "value": "either 3.7 μM or 11.1 μM"}, {"measurement": "IC50", "setting": "[7]", "value": 24, "unit": "µM"}, {"measurement": "albumin secretion by DOG hepatocytes", "setting": "[8]; 11.1 μM Bosentan", "value": "relatively constant amounts of albumin"}, {"measurement": "dose response associated with albumin secretion (loss of albumin secretion)", "setting": "[8]; 1.2-100 μM, fluid samples from the upper chamber", "value": "clear dose response"}, {"measurement": "dose response of albumin secretion", "setting": "[9]", "value": "clear dose response"}, {"measurement": "hepatocyte degradation, LSEC area or area of hepatocytes alone", "setting": "[10]", "value": "not in either the LSEC area or area of hepatocytes alone"}, {"measurement": "visual observation, co-culture area of hepatocytes with LSEC", "setting": "[10]", "value": "significant hepatocyte degradation"}, {"measurement": "IC50", "setting": "[11]", "value": 0.71, "unit": "µM"}, {"measurement": "elevations in serum Alanine aminotransferase (ALT)", "setting": "[12]; patients who developed hepatotoxicity", "value": "greater than 3 fold"}, {"measurement": "human patients treated who developed hepatotoxicity", "setting": "[12]", "value": "8-18%"}, {"measurement": "IC50", "setting": "[13]", "value": 30, "unit": "µM"}]}, {"molecule": "TGFβ-1: factor used to activate Stellate cells", "values": [{"measurement": "expression of activation marker Alpha-smooth muscle actin (α-SMA)", "setting": "[14]", "value": "increased (strong) expression"}]}]}
